According to US11464763B2, “Parasiticidal compositions comprising an isoxazoline active agent, methods and uses thereof” (BOEHRINGER INGELHEIM ANIMAL HEALTH USA INC., priority 2011, dated 2022):

Experiments:
Ctenocephalides felis = test: Spot-on efficacy at 1 mg/kg against Ctenocephalides felis fleas in cats protected from grooming (Example 8); assay type: in vivo; settings: cats with protective neck collar
Description: In another study, the efficacy of four spot-on formulations comprising Cmpd. A dosed at 1 mg/kg body weight in different carrier vehicles against fleas in cats was studied. Five cats each were allocated to five Treatment Groups: Group 1—Untreated; Group 2—0.833% (w/v) Cmpd. A in dimethylsulfoxide (DMSO); Group 3—0.833% (w/v) Cmpd. A in DMI; Group 4—0.833% (w/v) Cmpd. A in Transcutol®; and Group 5—0.833% (w/v) Cmpd. A in DES. […] the corresponding spot-on formulation by application of the formulation directly on the skin in the midline of the neck, between the base of the skull and the shoulder blades in a single spot using a 1 mL syringe. Infestations with approximately 100 C. felis were conducted weekly on Days 7, 14, 21, 28 and 35. […]

Otodectes cynotis = test: Spot-on efficacy against Otodectes cynotis (ear mites) in cats (Example 12); assay type: in vivo; settings: live mite count Day 14
Description: The efficacy of two spot-on compositions comprising Compound A at doses of 5 mg/kg and 10 mg/kg against Otodectes cynotis in cats was evaluated compared to an untreated control. Eighteen healthy cats were grouped into three study groups consisting of six cats per group. Cats in the treatment groups were infested with Otodectes cynotis obtained from naturally infested donor cats prior to acclimation on Day −7. Group 1 was an untreated control group. Cats in Groups 2 and 3 were treated once on Day 0 with a spot-on composition comprising Compound A at two different concentrations and doses by application of the formulation directly on the skin in the midline of the neck between the base of the skull and the shoulder blades with a 1 mL disposable syringe. Cats in Group 2 were treated with a spot-on composition containing 5.0% (w/v) Compound A in a carrier containing 40% (v/v) diethyl sebacate (DES) in dimethylisosorbide (DMI) at a dose of 5 mg/kg body weight; and cats in Group 3 were treated with a spot-on composition containing 10.0% (w/v) Compound A in a carrier containing 40% (v/v) DES in DMI at a dose of 10 mg/kg body weight. […] Visible live ear mites (adult or immature) were counted and debris/cerumen level was estimated for both ear ducts. A quantitative assessment of ear mites by ear duct flushing, mite collection and live mite count was performed on Day 14. […]

In the case of `O=C(CNC(=O)c1ccc(C2=NOC(c3cc(Cl)cc(C(F)(F)F)c3)(C(F)(F)F)C2)c2ccccc12)NCC(F)(F)F` (stereo not drawn) [Compound A, 4-[5-[3-chloro-5-(trifluoromethyl)phenyl]-4,5-dihydro-5-(trifluoromethyl)-3-isoxazolyl]-N-[2-oxo-2-[(2,2,2-trifluoroethyl)amino]ethyl]-1-naphthalanecarboxamide], the “% Reduction” value (Ctenocephalides felis; Group 2: 0.833% in DMSO, Day 1) is reported as 43.16%, the “% Reduction” value (Ctenocephalides felis; Group 2: 0.833% in DMSO, Day 2) is reported as 60.54% and the “% Reduction” value (Ctenocephalides felis; Group 2: 0.833% in DMSO, Day 8) is reported as 98.48%. For the same compound, the “% Reduction” value (Ctenocephalides felis; Group 2: 0.833% in DMSO, Day 15) was 95.91%, the “% Reduction” value (Ctenocephalides felis; Group 2: 0.833% in DMSO, Day 22) was 97.90% and the “% Reduction” value (Ctenocephalides felis; Group 2: 0.833% in DMSO, Day 29) was 90.10%. For the same compound, the “% Reduction” value (Ctenocephalides felis; Group 2: 0.833% in DMSO, Day 36) was 74.49%, the “% Reduction” value (Ctenocephalides felis; Group 3: 0.833% in DMI, Day 1) was 37.90% and the “% Reduction” value (Ctenocephalides felis; Group 3: 0.833% in DMI, Day 2) was 88.97%. The “% Reduction” value (Ctenocephalides felis; Group 3: 0.833% in DMI, Day 8) was 99.62%, the “% Reduction” value (Ctenocephalides felis; Group 3: 0.833% in DMI, Day 15) was 99.32% and the “% Reduction” value (Ctenocephalides felis; Group 3: 0.833% in DMI, Day 22) was 98.80%. For the same compound, the “% Reduction” value (Ctenocephalides felis; Group 3: 0.833% in DMI, Day 29) was 92.66%, the “% Reduction” value (Ctenocephalides felis; Group 3: 0.833% in DMI, Day 36) was 79.54% and the “% Reduction” value (Ctenocephalides felis; Group 4: 0.833% in Transcutol, Day 1) was 76.32%. For the same compound, the “% Reduction” value (Ctenocephalides felis; Group 4: 0.833% in Transcutol, Day 2) was 83.12%, the “% Reduction” value (Ctenocephalides felis; Group 4: 0.833% in Transcutol, Day 8) was 98.95% and the “% Reduction” value (Ctenocephalides felis; Group 4: 0.833% in Transcutol, Day 15) was 99.01%. For the same compound, the “% Reduction” value (Ctenocephalides felis; Group 4: 0.833% in Transcutol, Day 22) was 96.19%, the “% Reduction” value (Ctenocephalides felis; Group 4: 0.833% in Transcutol, Day 29) was 95.41% and the “% Reduction” value (Ctenocephalides felis; Group 4: 0.833% in Transcutol, Day 36) was 86.61%. For the same compound, the “% Reduction” value (Ctenocephalides felis; Group 5: 0.833% in DES, Day 1) was 54.40%, the “% Reduction” value (Ctenocephalides felis; Group 5: 0.833% in DES, Day 2) was 82.77% and the “% Reduction” value (Ctenocephalides felis; Group 5: 0.833% in DES, Day 8) was 98.82%. For the same compound, the “% Reduction” value (Ctenocephalides felis; Group 5: 0.833% in DES, Day 15) was 99.26%, the “% Reduction” value (Ctenocephalides felis; Group 5: 0.833% in DES, Day 22) was 99.82% and the “% Reduction” value (Ctenocephalides felis; Group 5: 0.833% in DES, Day 29) was 92.43%. For the same compound, the “% Reduction” value (Ctenocephalides felis; Group 5: 0.833% in DES, Day 36) was 88.11%, the “reduced the infestation of ear mites” value (Otodectes cynotis; Group 2: 5.0% in 40% DES in DMI, 5 mg/kg) was 99.0% and the “reduced the infestation of ear mites” value (Otodectes cynotis; Group 3: 10.0% in 40% DES in DMI, 10 mg/kg) was 100.0%.
